This test deals with T1, enkephalinase Al (Rattus norvegicus, UniProt P07861).
T1 construct: the solubilised enzymes contained in the supernatent separated by DEAE-cellulose column chromatograph; from tissue; host or cells: rat striatum (washed membrane pellet, solubilised with Triton X-100, then DEAE-cellulose and Sephacryl S.300 chromatography)
T1 sequence (P07861 1-750): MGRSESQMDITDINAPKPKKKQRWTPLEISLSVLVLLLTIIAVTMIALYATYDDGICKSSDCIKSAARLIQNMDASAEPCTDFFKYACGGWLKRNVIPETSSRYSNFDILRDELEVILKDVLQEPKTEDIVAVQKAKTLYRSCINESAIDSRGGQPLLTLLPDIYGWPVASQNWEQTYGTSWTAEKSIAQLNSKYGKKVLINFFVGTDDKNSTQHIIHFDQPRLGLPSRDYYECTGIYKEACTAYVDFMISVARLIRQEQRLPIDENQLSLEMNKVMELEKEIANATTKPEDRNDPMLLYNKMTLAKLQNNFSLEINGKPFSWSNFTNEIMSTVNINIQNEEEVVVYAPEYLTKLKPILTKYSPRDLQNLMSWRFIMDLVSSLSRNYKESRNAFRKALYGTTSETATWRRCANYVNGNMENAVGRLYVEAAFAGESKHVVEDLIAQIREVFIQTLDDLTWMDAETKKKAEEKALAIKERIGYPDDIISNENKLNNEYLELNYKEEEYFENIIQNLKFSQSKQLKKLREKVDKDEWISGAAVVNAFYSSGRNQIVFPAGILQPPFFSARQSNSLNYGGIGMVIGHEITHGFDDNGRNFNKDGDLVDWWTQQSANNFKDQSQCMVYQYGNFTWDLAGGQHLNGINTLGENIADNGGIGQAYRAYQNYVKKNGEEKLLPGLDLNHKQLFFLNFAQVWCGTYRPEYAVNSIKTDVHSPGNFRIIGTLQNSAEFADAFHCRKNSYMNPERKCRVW
Kind of test: enkephalinase-inhibiting activity (3H-TGG generation from 3H-leucine enkephalin, TLC separation, scintillation counting). It is filed as biochemical, Rats. To be noted: approximate IC50 determined graphically; concentration required for 50% inhibition of 3H-TGG generation; leucine enkephalin 5 x 10^-5M, 30°C. The text has this:
Rats were killed by decapitation and the striata dissected out on ice. […] The resulting supernatent was discarded and the remaining pellet washed three times.
Enkephalinase-inhibiting activity was estimated by the following procedure.

Where a name gives a salt, the structure may show the parent alone.

Two molecules from patent EP0075895A2, “Pharmaceutical amides, and preparation, formulations and use thereof” (THE WELLCOME FOUNDATION LIMITED, priority 1981, dated 1983) can be followed below.

Turning to `O=C(O)CNC(=O)[C@H](Cc1ccccc1)NP(=O)(O)O` [compound 2, N-Phosphoryl-L-phenylalanyl-glycine trisodium salt], the midpoint of inhibition, the IC50, lay at 0.015 µM. In other words, the double-digit nanomolar range.
As to “N-(Phosphoryl-phenylalanyl)leucine [compound 1]”, 0.007 µM corresponded to half-maximal inhibition (IC50).

As usually defined, the IC50 is the point on the concentration scale where inhibition reaches its midpoint.
